This note sets out measurements from publication PMC3092815 (Proteins, 2011).

For experiment [1], the target named is T1, C. perfringens PepcA (archaeal-type phosphoenolpyruvate carboxylase) (Clostridium perfringens, UniProt Q8XLE8). Briefly: biochemical.
Experiment [2] concerns the target T1, C. perfringens PepcA (archaeal-type phosphoenolpyruvate carboxylase).

By Ki is commonly meant the dissociation constant of the complex between target and ligand, obtained from inhibition or displacement. Low values mean a stronger hold on the target, high ones a looser hold on the target. In experiment [1], `N[C@@H](CC(=O)O)C(=O)O` [aspartate] came in with an inhibition constant Ki of 200 µM.
The term Km denotes the substrate concentration at which the rate is half of its maximum. Turning to Mg^++.PEP, in experiment [2], the Km came to 60 µM.
